± gives the expanded uncertainty stated by the source.
Tests used:
[1] = refractive index (Na D-line) (dimensionless); conditions: 101.33 kPa, Liquid, Standard Abbe refractometry
[2] = 101.33 kPa, Liquid; for viscosity: Capillary tube (Ostwald / Ubbelohde) method; for speed of sound: Sing-around technique in a fixed-path interferometer; for mass density: Vibrating tube method

## CCCCCC[n+]1cc(C)cc(C)c1CCCCC.O=S(=O)([N-]S(=O)(=O)C(F)(F)F)C(F)(F)F
[1]; 298.15 K
  refractive index: 1.46074 ± 0.00037
[1]; 303.15 K
  refractive index: 1.4591 ± 0.00037
[1]; 308.15 K
  refractive index: 1.45746 ± 0.00037
[1]; 313.15 K
  refractive index: 1.45583 ± 0.00037
[1]; 318.15 K
  refractive index: 1.45417 ± 0.00037
[1]; 323.15 K
  refractive index: 1.45255 ± 0.00037
[1]; 328.15 K
  refractive index: 1.45093 ± 0.00037
[1]; 333.15 K
  refractive index: 1.4493 ± 0.00037
[1]; 338.15 K
  refractive index: 1.44769 ± 0.00037
[1]; 343.15 K
  refractive index: 1.44607 ± 0.00037
[2]; 298.15 K
  viscosity: 278 ± 10 mPa·s
  speed of sound: 1291 ± 2 m/s
  mass density: 1253.47 ± 0.44 kg/m3
[2]; 303.15 K
  viscosity: 204 ± 7 mPa·s
  speed of sound: 1277 ± 2 m/s
  mass density: 1249.29 ± 0.44 kg/m3
[2]; 308.15 K
  viscosity: 151 ± 4 mPa·s
  speed of sound: 1264 ± 2 m/s
  mass density: 1245.09 ± 0.44 kg/m3
[2]; 313.15 K
  viscosity: 115 ± 3 mPa·s
  speed of sound: 1251 ± 2 m/s
  mass density: 1240.9 ± 0.43 kg/m3
[2]; 318.15 K
  viscosity: 88.5 ± 2.2 mPa·s
  speed of sound: 1238 ± 2 m/s
  mass density: 1236.71 ± 0.43 kg/m3
[2]; 323.15 K
  viscosity: 69.6 ± 1.6 mPa·s
  speed of sound: 1225 ± 2 m/s
  mass density: 1232.53 ± 0.42 kg/m3
[2]; 328.15 K
  viscosity: 55.7 ± 1.3 mPa·s
  speed of sound: 1213 ± 2 m/s
  mass density: 1228.37 ± 0.42 kg/m3
[2]; 333.15 K
  viscosity: 45.2 ± 1 mPa·s
  speed of sound: 1201 ± 2 m/s
  mass density: 1224.22 ± 0.42 kg/m3
[2]; 338.15 K
  viscosity: 37.1 ± 0.8 mPa·s
  speed of sound: 1188 ± 2 m/s
  mass density: 1220.07 ± 0.41 kg/m3
[2]; 343.15 K
  viscosity: 30.9 ± 0.7 mPa·s
  speed of sound: 1176 ± 2 m/s
  mass density: 1215.94 ± 0.41 kg/m3

## CCCCCc1c(C)cc(C)c[n+]1CCCC.O=S(=O)([N-]S(=O)(=O)C(F)(F)F)C(F)(F)F
[1]; 298.15 K
  refractive index: 1.4604 ± 0.00037
[1]; 303.15 K
  refractive index: 1.45878 ± 0.00037
[1]; 308.15 K
  refractive index: 1.45714 ± 0.00037
[1]; 313.15 K
  refractive index: 1.45549 ± 0.00037
[1]; 318.15 K
  refractive index: 1.45386 ± 0.00037
[1]; 323.15 K
  refractive index: 1.45226 ± 0.00037
[1]; 328.15 K
  refractive index: 1.45065 ± 0.00037
[1]; 333.15 K
  refractive index: 1.44902 ± 0.00037
[1]; 338.15 K
  refractive index: 1.44744 ± 0.00037
[1]; 343.15 K
  refractive index: 1.44588 ± 0.00037
[2]; 298.15 K
  viscosity: 253 ± 9 mPa·s
  speed of sound: 1293 ± 2 m/s
  mass density: 1288.23 ± 0.47 kg/m3
[2]; 303.15 K
  viscosity: 186 ± 6 mPa·s
  speed of sound: 1279 ± 2 m/s
  mass density: 1283.93 ± 0.47 kg/m3
[2]; 308.15 K
  viscosity: 138 ± 4 mPa·s
  speed of sound: 1266 ± 2 m/s
  mass density: 1279.63 ± 0.47 kg/m3
[2]; 313.15 K
  viscosity: 105 ± 3 mPa·s
  speed of sound: 1253 ± 2 m/s
  mass density: 1275.33 ± 0.46 kg/m3
[2]; 318.15 K
  viscosity: 80.8 ± 2 mPa·s
  speed of sound: 1240 ± 2 m/s
  mass density: 1271.04 ± 0.46 kg/m3
[2]; 323.15 K
  viscosity: 63.7 ± 1.5 mPa·s
  speed of sound: 1228 ± 2 m/s
  mass density: 1266.77 ± 0.46 kg/m3
[2]; 328.15 K
  viscosity: 51 ± 1.1 mPa·s
  speed of sound: 1215 ± 2 m/s
  mass density: 1262.51 ± 0.45 kg/m3
[2]; 333.15 K
  viscosity: 41.5 ± 0.9 mPa·s
  speed of sound: 1203 ± 2 m/s
  mass density: 1258.26 ± 0.45 kg/m3
[2]; 338.15 K
  viscosity: 34.2 ± 0.8 mPa·s
  speed of sound: 1191 ± 2 m/s
  mass density: 1254.01 ± 0.44 kg/m3
[2]; 343.15 K
  viscosity: 28.6 ± 0.6 mPa·s
  speed of sound: 1179 ± 2 m/s
  mass density: 1249.77 ± 0.44 kg/m3

## CCCCCc1c(C)cc(C)c[n+]1CC.O=S(=O)([N-]S(=O)(=O)C(F)(F)F)C(F)(F)F
[1]; 298.15 K
  refractive index: 1.46108 ± 0.00037
[1]; 303.15 K
  refractive index: 1.45947 ± 0.00037
[1]; 308.15 K
  refractive index: 1.45787 ± 0.00037
[1]; 313.15 K
  refractive index: 1.45627 ± 0.00037
[1]; 318.15 K
  refractive index: 1.45463 ± 0.00037
[1]; 323.15 K
  refractive index: 1.45304 ± 0.00037
[1]; 328.15 K
  refractive index: 1.45139 ± 0.00037
[1]; 333.15 K
  refractive index: 1.44979 ± 0.00037
[1]; 338.15 K
  refractive index: 1.44822 ± 0.00037
[1]; 343.15 K
  refractive index: 1.44667 ± 0.00037
[2]; 298.15 K
  viscosity: 260 ± 9 mPa·s
  speed of sound: 1309 ± 2 m/s
  mass density: 1323.9 ± 0.51 kg/m3
[2]; 303.15 K
  viscosity: 187 ± 6 mPa·s
  speed of sound: 1296 ± 2 m/s
  mass density: 1319.56 ± 0.5 kg/m3
[2]; 308.15 K
  viscosity: 138 ± 4 mPa·s
  speed of sound: 1283 ± 2 m/s
  mass density: 1315.21 ± 0.5 kg/m3
[2]; 313.15 K
  viscosity: 104 ± 3 mPa·s
  speed of sound: 1270 ± 2 m/s
  mass density: 1310.86 ± 0.49 kg/m3
[2]; 318.15 K
  viscosity: 79.9 ± 1.9 mPa·s
  speed of sound: 1258 ± 2 m/s
  mass density: 1306.53 ± 0.49 kg/m3
[2]; 323.15 K
  viscosity: 62.8 ± 1.4 mPa·s
  speed of sound: 1245 ± 2 m/s
  mass density: 1302.2 ± 0.49 kg/m3
[2]; 328.15 K
  viscosity: 50.1 ± 1.1 mPa·s
  speed of sound: 1233 ± 2 m/s
  mass density: 1297.9 ± 0.48 kg/m3
[2]; 333.15 K
  viscosity: 40.7 ± 0.9 mPa·s
  speed of sound: 1221 ± 2 m/s
  mass density: 1293.6 ± 0.48 kg/m3
[2]; 338.15 K
  viscosity: 33.5 ± 0.7 mPa·s
  speed of sound: 1209 ± 2 m/s
  mass density: 1289.3 ± 0.48 kg/m3
[2]; 343.15 K
  viscosity: 28 ± 0.6 mPa·s
  speed of sound: 1198 ± 2 m/s
  mass density: 1285.03 ± 0.47 kg/m3

## CCCCCC[n+]1cc(C)cc(C)c1C.O=S(=O)([N-]S(=O)(=O)C(F)(F)F)C(F)(F)F
[1]; 298.15 K
  refractive index: 1.46466 ± 0.00037
[1]; 303.15 K
  refractive index: 1.46311 ± 0.00037
[1]; 308.15 K
  refractive index: 1.4615 ± 0.00037
[1]; 313.15 K
  refractive index: 1.4599 ± 0.00037
[1]; 318.15 K
  refractive index: 1.45826 ± 0.00037
[1]; 323.15 K
  refractive index: 1.45671 ± 0.00037
[1]; 328.15 K
  refractive index: 1.45514 ± 0.00037
[1]; 333.15 K
  refractive index: 1.45357 ± 0.00037
[1]; 338.15 K
  refractive index: 1.452 ± 0.00037
[1]; 343.15 K
  refractive index: 1.45044 ± 0.00037
[2]; 298.15 K
  viscosity: 174 ± 5 mPa·s
  speed of sound: 1288 ± 2 m/s
  mass density: 1336.18 ± 0.52 kg/m3
[2]; 303.15 K
  viscosity: 129 ± 4 mPa·s
  speed of sound: 1276 ± 2 m/s
  mass density: 1331.83 ± 0.51 kg/m3
[2]; 308.15 K
  viscosity: 98.2 ± 2.5 mPa·s
  speed of sound: 1264 ± 2 m/s
  mass density: 1327.48 ± 0.51 kg/m3
[2]; 313.15 K
  viscosity: 76.2 ± 1.8 mPa·s
  speed of sound: 1252 ± 2 m/s
  mass density: 1323.15 ± 0.51 kg/m3
[2]; 318.15 K
  viscosity: 60.2 ± 1.4 mPa·s
  speed of sound: 1240 ± 2 m/s
  mass density: 1318.83 ± 0.5 kg/m3
[2]; 323.15 K
  viscosity: 48.3 ± 1.1 mPa·s
  speed of sound: 1229 ± 2 m/s
  mass density: 1314.52 ± 0.5 kg/m3
[2]; 328.15 K
  viscosity: 39.3 ± 0.9 mPa·s
  speed of sound: 1218 ± 2 m/s
  mass density: 1310.23 ± 0.49 kg/m3
[2]; 333.15 K
  viscosity: 32.4 ± 0.7 mPa·s
  speed of sound: 1206 ± 2 m/s
  mass density: 1305.85 ± 0.49 kg/m3
[2]; 338.15 K
  viscosity: 27.1 ± 0.6 mPa·s
  speed of sound: 1195 ± 2 m/s
  mass density: 1301.66 ± 0.49 kg/m3
[2]; 343.15 K
  viscosity: 23 ± 0.5 mPa·s
  speed of sound: 1184 ± 2 m/s
  mass density: 1297.4 ± 0.48 kg/m3

Reference: the NIST ThermoML archive (doi:10.1016/j.jct.2013.09.028)
